Results on one compound are retold here after paper PMC8959664, “Elucidating Therapeutic and Biological Potential of Berberis baluchistanica Ahrendt Bark, Leaf, and Root Extracts” (Frontiers in Microbiology, 2022).

For the assay, the system named is T1, trypsin.
T1 construct: gene PRSS1; commercial-type enzyme; bovine is only a guess (porcine equally possible)
Description: casein digestion, perchloric acid precipitation, absorbance […] nm. The settings on record: casein 0.8% substrate, Tris-HCl pH 7.4, 37°C, 5 min preincubation. In kind it is biochemical.

Structures are written as SMILES.

As for `CC(=O)Oc1ccccc1C(=O)O` [aspirin], the “Protein inhibition denaturation IC50” value was determined as 430 ± 100 µg/mL.
